Biological target: T1, PfENT1Y190A (Plasmodium falciparum, UniProt Q8IDM6, Y190A)
T1 construct: 10xHis (N); made in house; host or cells: Sf9 insect cells (baculovirus)
T1 sequence (Q8IDM6 1-422 Y190A): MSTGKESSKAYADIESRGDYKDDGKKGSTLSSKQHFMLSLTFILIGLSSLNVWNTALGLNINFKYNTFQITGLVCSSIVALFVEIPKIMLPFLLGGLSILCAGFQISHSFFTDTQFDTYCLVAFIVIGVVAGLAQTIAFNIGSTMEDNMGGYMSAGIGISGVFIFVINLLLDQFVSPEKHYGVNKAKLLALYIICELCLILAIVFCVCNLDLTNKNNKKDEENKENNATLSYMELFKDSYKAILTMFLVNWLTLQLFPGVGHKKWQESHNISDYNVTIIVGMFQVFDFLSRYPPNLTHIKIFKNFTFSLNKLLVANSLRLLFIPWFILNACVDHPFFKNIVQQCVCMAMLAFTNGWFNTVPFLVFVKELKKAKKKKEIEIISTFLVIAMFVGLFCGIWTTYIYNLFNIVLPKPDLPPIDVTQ
Assay: ITC binding to PfENT1Y190A
Conditions: compared with wild type
Experimental: For the in vitro binding assay, Sf9 cells were solubilized in lysis buffer containing 2% (w/v) n-dodecyl-β-D-maltopyranoside (DDM, Anatrace) and protease inhibitor cocktail (0.8 μM aprotinin, 2 μM pepstatin, and 5 μg/ml leupeptin) at 4 °C for 2 h. The soluble supernatant was collected via centrifugation and incubated with Ni-NTA resin (QIAGEN) at 4 °C for 1 h. The resin was washed and eluted using lysis buffer containing 0.05% (w/v) DDM and 30 mM/300 mM imidazole. The protein was further purified by size-exclusion chromatography (Superdex 200 Increase 10/300; GE Healthcare) in buffer containing 25 mM MES (pH 6.0), 150 mM NaCl, and 0.05% (w/v) DDM. The peak fractions were pooled and concentrated to 10~50 μM for the nucleoside-binding assay.
The binding affinity between wild-type and mutant PfENT1 with nucleosides and GSK4 was measured using a Micro-Cal ITC200 (Malvern). All proteins were prepared in 25 mM MES (pH 6.0), 150 mM NaCl, and 0.05% (w/v) DDM. Nucleosides (5~10 mM) and GSK4 (100-200 μM) dissolved in the same buffer were titrated against 20–50 μM PfENT1 proteins at 25 °C. PEAQ-ITC analysis software (MicroCal) was employed to analyze the data. All titrations were repeated three times.

SMILES: OC[C@H]1O[C@@H](n2cnc3c(O)ncnc32)[C@H](O)[C@@H]1O [Inosine, inosine]
- inosine-binding affinity: similar

Reference: PMC10050424, “Structural basis of the substrate recognition and inhibition mechanism of Plasmodium falciparum nucleoside transporter PfENT1” (Nature Communications, 2023)
